molecular target: HIF PHD2 (Homo sapiens, UniProt Q9GZT9); test: PHD2 inhibition assay (TR-FRET, VCB-Eu detection of hydroxylated P564-HIF1α peptide); assay type: biochemical; details: 2 nM PHD2, 100 nM P564-HIF1α peptide, 0.25 μM 2-oxoglutarate, 100 μM FeCl2, 2 mM ascorbic acid, pH 6
Protocol: Inhibition of HIF PHD2 activity was quantified utilizing the TR-FRET technology. HIF PHD2 catalyzes a hydroxyl modification on the proline residue of the P564-HIF1α peptide substrate (Biotin-[…] (SEQ ID NO: 7)) resulting in recognition and binding of the europylated Von Hippel-Lindau protein (pVHL), elongin B and elongin C heterotrimeric (VCB-Eu) complex.
The PHD2 inhibition assay was executed by addition of freshly dissolved FeCl2 to 178.57 μM (100 μM final concentration) in PHD2 Reaction Buffer containing 30 mM MES, pH 6, 10 mM NaCl, 0.25% Brij-35, 0.01% BSA, and 1% DMSO. 28 μL of the iron solution and 2 μL of inhibitor compounds serially diluted in 100% DMSO (5% DMSO final) were added to black polypropylene 96-well microtiter plates. To that, 10 μL of 10 nM PHD2 (2 nM final) was added to all wells of the plate except for the 8 wells of column 12 (LO control), and allowed to incubate at room temperature on the shaker for one hour. Column 6 was the HI control containing PHD2 enzyme and 5% DMSO vehicle, but no inhibitor compound. To initiate the PHD2 enzymatic reaction, 10 μL of a solution containing 500 nM P564-HIF1α peptide (100 nM final), 10 mM ascorbic acid (2 mM final), and 1.25 μM 2-oxoglutarate (α-ketoglutarate; 0.25 μM final) in PHD2 Reaction Buffer was added to all wells of the plate and allowed to incubate on the shaker at room temperature for one hour.
The reaction was terminated by addition of 25 μL TR-FRET Buffer (50 mM TRIS-HCl, pH 9, 100 mM NaCl, 0.05% BSA, and 0.5% Tween-20) containing 150 mM succinate (product inhibitor; 50 mM final), 75 nM streptavidin-APC (25 nM final), and 7.5 nM VCB-Eu (2.5 nM final). The TR-FRET detection reagents were placed on a shaker for 1 hour to reach binding equilibrium before reading on the Discovery platform (PerkinElmer). Europium is excited at 315 nm and phosphoresces at 615 nm with a large Stoke's shift. APC, in turn, emits at 655 nm upon excitation at 615 nm. The TR-FRET signal is measured as the ratio of the APC 655 nm signal divided by the internal europium reference 615 nm emission signal.
The POC (percentage of control) was determined by comparing the signal from hydroxylated peptide substrate in the enzyme reaction containing inhibitor compound with that from PHD2 enzyme with DMSO vehicle alone (HI control), and no enzyme (LO control). POC was calculated using the formula: % control (POC)=(cpd−average LO)/(average HI−average LO)*100. Data (consisting of POC and inhibitor concentration in μM) was fitted to a 4-parameter equation (y=A+((B−A)/(1+((x/C)^D))), where A is the minimum y (POC) value, B is the maximum y (POC), C is the x (cpd concentration) at the point of inflection and D is the slope factor) using a Levenburg-Marquardt non-linear regression algorithm.

HIF PHD2, sequence (Q9GZT9 whole entry): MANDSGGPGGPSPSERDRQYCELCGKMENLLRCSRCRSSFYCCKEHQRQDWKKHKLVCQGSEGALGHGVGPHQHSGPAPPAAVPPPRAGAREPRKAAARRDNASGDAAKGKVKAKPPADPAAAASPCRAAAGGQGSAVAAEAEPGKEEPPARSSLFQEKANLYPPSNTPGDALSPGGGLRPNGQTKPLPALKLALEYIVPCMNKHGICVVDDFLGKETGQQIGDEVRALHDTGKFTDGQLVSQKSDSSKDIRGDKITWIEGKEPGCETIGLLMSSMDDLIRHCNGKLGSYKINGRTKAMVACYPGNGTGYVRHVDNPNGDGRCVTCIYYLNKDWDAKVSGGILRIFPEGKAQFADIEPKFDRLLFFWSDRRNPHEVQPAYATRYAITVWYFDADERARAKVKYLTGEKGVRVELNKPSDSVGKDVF

| SMILES | IC50 [nM] |
| --- | --- |
| COc1ccccc1-c1ncc2c(O)c(C(=O)NCC(=O)O)c(=O)n(C)c2n1 [Example 31, 2-(5-hydroxy-2-(2-methoxyphenyl)-8-methyl-7-oxo-7,8-dihydropyrido[2,3-d]pyrimidine-6-carboxamido)acetic acid] | 2.4 |
| Cn1c(=O)c(C(=O)NCC(=O)O)c(O)c2cnc(-c3cccc4ncccc34)nc21 [Example 35, 2-(5-hydroxy-8-methyl-7-oxo-2-(quinolin-5-yl)-7,8-dihydropyrido[2,3-d]pyrimidine-6-carboxamido)acetic acid] | 2.4 |
| Cn1c(=O)c(C(=O)NCC(=O)O)c(O)c2cnc(-c3cc4ccccc4s3)nc21 [Example 36, 2-(2-(benzo[b]thiophen-2-yl)-5-hydroxy-8-methyl-7-oxo-7,8-dihydropyrido[2,3-d]pyrimidine-6-carboxamido)acetic acid] | 7.4 |
| Cn1c(=O)c(C(=O)NCC(=O)O)c(O)c2cnc(-c3ccco3)nc21 [Example 38, 2-(2-(furan-2-yl)-5-hydroxy-8-methyl-7-oxo-7,8-dihydropyrido[2,3-d]pyrimidine-6-carboxamido)acetic acid] | 2.5 |
| Cn1c(=O)c(C(=O)NCC(=O)O)c(O)c2cnc(-c3csc4ccccc34)nc21 [Example 40, 2-(2-(benzo[b]thiophen-3-yl)-5-hydroxy-8-methyl-7-oxo-7,8-dihydropyrido[2,3-d]pyrimidine-6-carboxamido)acetic acid] | 13 |
| Cn1c(=O)c(C(=O)NCC(=O)O)c(O)c2cnc(-c3cc4ccccc4[nH]3)nc21 [Example 42, 2-(5-hydroxy-2-(1H-indol-2-yl)-8-methyl-7-oxo-7,8-dihydropyrido[2,3-d]pyrimidine-6-carboxamido)acetic acid] | 3.1 |
| Cn1ccc2cc(-c3ncc4c(O)c(C(=O)NCC(=O)O)c(=O)n(C)c4n3)ccc21 [Example 44, 2-(5-hydroxy-8-methyl-2-(1-methyl-1H-indol-5-yl)-7-oxo-7,8-dihydropyrido[2,3-d]pyrimidine-6-carboxamido)acetic acid] | 7.8 |
| Cn1c(=O)c(C(=O)NCC(=O)O)c(O)c2cnc(-c3ccnc4ccccc34)nc21 [Example 45, 2-(5-hydroxy-8-methyl-7-oxo-2-(quinolin-4-yl)-7,8-dihydropyrido[2,3-d]pyrimidine-6-carboxamido)acetic acid] | 2 |
| Cn1c(=O)c(C(=O)NCC(=O)O)c(O)c2cnc(-c3cccc4ccccc34)nc21 [Example 46, 2-(5-hydroxy-8-methyl-2-(naphthalen-1-yl)-7-oxo-7,8-dihydropyrido[2,3-d]pyrimidine-6-carboxamido)acetic acid] | 2.3 |
| Cn1c(=O)c(C(=O)NCC(=O)O)c(O)c2cnc(-c3cnc4ccccc4c3)nc21 [Example 49, 2-(5-hydroxy-8-methyl-7-oxo-2-(quinolin-3-yl)-7,8-dihydropyrido[2,3-d]pyrimidine-6-carboxamido)acetic acid] | 3.2 |
| Cc1ccccc1-c1ncc2c(O)c(C(=O)NCC(=O)O)c(=O)n(C)c2n1 [Example 50, 2-(5-hydroxy-8-methyl-7-oxo-2-o-tolyl-7,8-dihydropyrido[2,3-d]pyrimidine-6-carboxamido)acetic acid] | 3.6 |
| Cn1c(=O)c(C(=O)NCC(=O)O)c(O)c2cnc(-c3cccc(N4CCOCC4)c3)nc21 [Example 53, 2-(5-hydroxy-8-methyl-2-(3-morpholinophenyl)-7-oxo-7,8-dihydropyrido[2,3-d]pyrimidine-6-carboxamido)acetic acid] | 5 |
| Cn1c(=O)c(C(=O)NCC(=O)O)c(O)c2cnc(-c3cccc4[nH]ccc34)nc21 [Example 56, 2-(5-hydroxy-2-(1H-indol-4-yl)-8-methyl-7-oxo-7,8-dihydropyrido[2,3-d]pyrimidine-6-carboxamido)acetic acid] | 5.3 |
| Cn1c(-c2ncc3c(O)c(C(=O)NCC(=O)O)c(=O)n(C)c3n2)cc2ccccc21 [Example 57, 2-(5-hydroxy-8-methyl-2-(1-methyl-1H-indol-2-yl)-7-oxo-7,8-dihydropyrido[2,3-d]pyrimidine-6-carboxamido)acetic acid] | 14 |

More lines, now with the values ahead:

| IC50 [nM] | SMILES |
| --- | --- |
| 5.3 | Cn1c(=O)c(C(=O)NCC(=O)O)c(O)c2cnc(-c3ccoc3)nc21 [Example 30, 2-(2-(furan-3-yl)-5-hydroxy-8-methyl-7-oxo-7,8-dihydropyrido[2,3-d]pyrimidine-6-carboxamido)acetic acid] |
| 5.3 | Cn1c(=O)c(C(=O)NCC(=O)O)c(O)c2cnc(-c3ccc(N4CCCCC4)cc3)nc21 [Example 32, 2-(5-hydroxy-8-methyl-7-oxo-2-(4-(piperidin-1-yl)phenyl)-7,8-dihydropyrido[2,3-d]pyrimidine-6-carboxamido)acetic acid] |
| 6.4 | COc1ccc(-c2ncc3c(O)c(C(=O)NCC(=O)O)c(=O)n(C)c3n2)cc1 [Example 33, 2-(5-hydroxy-2-(4-methoxyphenyl)-8-methyl-7-oxo-7,8-dihydropyrido[2,3-d]pyrimidine-6-carboxamido)acetic acid] |
| 10 | COc1cccc(-c2ncc3c(O)c(C(=O)NCC(=O)O)c(=O)n(C)c3n2)c1 [Example 34, 2-(5-hydroxy-2-(3-methoxyphenyl)-8-methyl-7-oxo-7,8-dihydropyrido[2,3-d]pyrimidine-6-carboxamido)acetic acid] |
| 8.8 | Cc1cccc(-c2ncc3c(O)c(C(=O)NCC(=O)O)c(=O)n(C)c3n2)c1 [Example 37, 2-(5-hydroxy-8-methyl-7-oxo-2-m-tolyl-7,8-dihydropyrido[2,3-d]pyrimidine-6-carboxamido)acetic acid] |
| 7.8 | Cn1c(=O)c(C(=O)NCC(=O)O)c(O)c2cnc(-c3ccc(Cl)cc3)nc21 [Example 39, 2-(2-(4-chlorophenyl)-5-hydroxy-8-methyl-7-oxo-7,8-dihydropyrido[2,3-d]pyrimidine-6-carboxamido)acetic acid] |
| 9.4 | Cn1c(=O)c(C(=O)NCC(=O)O)c(O)c2cnc(-c3ccc4ccccc4c3)nc21 [Example 41, 2-(5-hydroxy-8-methyl-2-(naphthalen-2-yl)-7-oxo-7,8-dihydropyrido[2,3-d]pyrimidine-6-carboxamido)acetic acid] |
| 7.9 | Cn1c(=O)c(C(=O)NCC(=O)O)c(O)c2cnc(-c3cccc(Cl)c3)nc21 [Example 43, 2-(2-(3-chlorophenyl)-5-hydroxy-8-methyl-7-oxo-7,8-dihydropyrido[2,3-d]pyrimidine-6-carboxamido)acetic acid] |
| 6.7 | Cc1ccc(-c2ncc3c(O)c(C(=O)NCC(=O)O)c(=O)n(C)c3n2)cc1 [Example 47, 2-(5-hydroxy-8-methyl-7-oxo-2-p-tolyl-7,8-dihydropyrido[2,3-d]pyrimidine-6-carboxamido)acetic acid] |
| 7.1 | Cn1c(=O)c(C(=O)NCC(=O)O)c(O)c2cnc(-c3ccc4occc4c3)nc21 [Example 48, 2-(2-(benzofuran-5-yl)-5-hydroxy-8-methyl-7-oxo-7,8-dihydropyrido[2,3-d]pyrimidine-6-carboxamido)acetic acid] |
| 9.4 | Cn1c(=O)c(C(=O)NCC(=O)O)c(O)c2cnc(-c3ccc4sccc4c3)nc21 [Example 51, 2-(2-(benzo[b]thiophen-5-yl)-5-hydroxy-8-methyl-7-oxo-7,8-dihydropyrido[2,3-d]pyrimidine-6-carboxamido)acetic acid] |
| 4.1 | Cn1c(=O)c(C(=O)NCC(=O)O)c(O)c2cnc(-c3ccc(C#N)cc3)nc21 [Example 52, 2-(2-(4-cyanophenyl)-5-hydroxy-8-methyl-7-oxo-7,8-dihydropyrido[2,3-d]pyrimidine-6-carboxamido)acetic acid] |
| 4 | Cn1c(=O)c(C(=O)NCC(=O)O)c(O)c2cnc(-c3ccsc3)nc21 [Example 54, 2-(5-hydroxy-8-methyl-7-oxo-2-(thiophen-3-yl)-7,8-dihydropyrido[2,3-d]pyrimidine-6-carboxamido)acetic acid] |
| 4.45 | Cn1c(=O)c(C(=O)NCC(=O)O)c(O)c2cnc(-c3cccnc3)nc21 [Example 55, 2-(5-hydroxy-8-methyl-7-oxo-2-(pyridin-3-yl)-7,8-dihydropyrido[2,3-d]pyrimidine-6-carboxamido)acetic acid] |

Reference: patent publication US8097620B2, “Diazaquinolones that inhibit prolyl hydroxylase activity” (Amgen Inc., priority 2007, dated 2012)
